Results as given in patent US20250206758A1, “SUBSTITUTED BRIDGED RING INHIBITOR, PREPARATION METHOD THEREFOR AND APPLICATION THEREOF” (SUZHOU ZELGEN BIOPHARMACEUTICALS CO., LTD., priority 2022, published 2025).
Where two headings read alike, the source gives them in different places.

How the values were obtained:
GP2D = assay: Cell proliferation inhibition, GP2D (CellTiter-Glo 3D, 7 days); format: cell-based
Procedure: (§1) • (a) Resuscitating cells in T75 cell culture flask: • (b) When the cell confluence reaches 80-90%, subculturing the cells.
(§2) The diluted test compound was added to a 384-well cell culture plate with a nanoliter pipetting system, and duplicate wells were set up. An equal volume of culture medium was added to the positive control group; and an equal volume of DMSO was added to the negative control group, then centrifugation was conducted at 1000 rpm for 1 min at room temperature.
(§3) Cells were inoculated into a) 384-well culture plate, with an equal volume of cells added to the negative control group, and only an equal volume of culture medium added to the positive control group. The plate was centrifuged at 1000 rpm for 1 min at room temperature, and the final DMSO concentration of the compound was 0.5% at last. The plate was placed in a 37° C., 5% CO2 constant temperature incubator for 7 days.
(§4) 20 μL/well of CellTiter-Glo® 3D to b) was added to 384-well cell culture plate, and the plate was shook at 320 rpm for 20 min in the dark, and incubated at room temperature in the dark for 2 hrs.
(§5) The luminescence value was read using an Envision multi-functional microplate reader.
(§6) The inhibition rate (IR) of the test compound was calculated using the following formula: IR (%)=(1−(RLU compound−RLU blank control)/(RLU meidum control−RLU blank control))*100%. The inhibition rates of different concentrations of compounds were calculated in Excel, and then the inhibition curves were plotted and the related parameters (including the minimum inhibition rate, maximum inhibition rate and IC50) were calculated using GraphPad Prism software.

AsPC-1 = assay: Cell proliferation inhibition, AsPC-1 (CellTiter-Glo 3D, 7 days); format: cell-based; details: AsPC-1, 7 days
Procedure: as §1, §2, §3, §4, §5, §6

| Compound | IC50 (GP2D; 168 h) [nM] | IC50 (AsPC-1; Homo sapiens, ASPC1, 168 h) [nM] | IC50 (GP2D) [nM] | IC50 (AsPC-1) [nM] |
| --- | --- | --- | --- | --- |
| CCc1c(F)ccc2cc(O)cc(-c3ncc4c(N5CC6CCC(C5)N6)nc(OC[C@]56CCCN5C[C@]5(CC5(F)F)C6)nc4c3F)c12 [Example 17B] | 1.15 | 7.84 |  |  |
| Cc1cc(N)nc(-c2ncc3c(N4CC5CCC(C4)N5)nc(OC[C@@]45CCCN4C[C@@]4(CC4(F)F)C5)nc3c2F)c1C(F)(F)F [Example 18, 6-(4-((1R,5S)-3,8-diazabicyclo[3.2.1]octan-3-yl)-2-(((trans)-2,2-difluorodihydro-1′H,3′H-spiro[cyclopropan-1,2′-pyrrolizin]-7a′(5′H)-yl)methoxy)-8-fluoropyridino[4,3d]pyrimidin-7-yl)-4-methyl-5-(trifluoromethyl)pyridin-2-amine] | 9.83 | 307 |  |  |
| C#Cc1c(F)ccc2cc(O)cc(-c3ncc4c(N5C[C@H]6CC[C@@](C)(C5)N6)nc(OC[C@@]56CCCN5C[C@@]5(CC5(F)F)C6)nc4c3F)c12 [Example 20A, 4-(2-(((1S,7a'S)-2,2-difluorodihydro-1′H,3′H-spiro[cyclopropan-1,2′-pyrrolizin]-7a′(5′H)-yl)methoxy)-8-fluoro-4-((1S,5R)-1-methyl-3,8-diazabicyclo[3.2.1]octan-3-yl)pyridino[4,3-d]pyrimidin-7-yl)-5-ethynyl-6-fluoronaphthol-2-ol] |  |  | 0.44 | 4.11 |
| C#Cc1c(F)ccc2cc(O)cc(-c3ncc4c(N5C[C@@H]6CC[C@](C)(C5)N6)nc(OC[C@@]56CCCN5C[C@@]5(CC5(F)F)C6)nc4c3F)c12 [Example 20B, 4-(2-(((1S,7a'S)-2,2-difluorodihydro-1′H,3′H-spiro[cyclopropan-1,2′-pyrrolizin]-7a′(5′H)-yl)methoxy)-8-fluoro-4-((1R,5S)-1-methyl-3,8-diazabicyclo[3.2.1]octan-3-yl)pyridino[4,3-d]pyrimidin-7-yl)-5-ethynyl-6-fluoronaphthol-2-ol] |  |  | 0.58 | 4.86 |
| Cc1c(F)cc2[nH]ncc2c1-c1ncc2c(N3C[C@H]4CC[C@@H](C3)N4)nc(OC[C@@]34CCCN3C[C@@]3(CC3(F)F)C4)nc2c1F [Example 22, (1S,7a'S)-7a′-(((4-((1R,5S)-3,8-diazabicyclo[3.2.1]octan-3-yl)-8-fluoro-7-(6-fluoro-5-methyl-1H-indazol-4-yl)pyridino[4,3-d]pyrimidin-2-yl)oxy)methyl)-2,2-difluorodihydro-1′H,3′H-spiro[cyclopropan-1,2′-pyrrolizin]] | > 100 | > 1000 |  |  |
| Nc1nc2c(-c3ncc4c(N5C[C@H]6CC[C@@H](C5)N6)nc(OC[C@@]56CCCN5C[C@@]5(CC5(F)F)C6)nc4c3F)ccc(F)c2s1 [Example 23, 4-(4-((1R,5S)-3,8-diazabicyclo[3.2.1]octan-3-yl)-2-(((1S,7a'S)-2,2-difluorodihydro-1′H,3′H-spiro[cyclopropan-1,2′-pyrrolizin]-7a′(5′H)-yl)methoxy)-8-fluoropyridino[4,3-d]pyrimidin-7-yl)-7-fluorobenzo[d]thiazol-2-amine] | > 100 | > 1000 |  |  |
| Nc1c(Cl)cc(Cl)c(F)c1-c1ncc2c(N3C[C@H]4CC[C@@H](C3)N4)nc(OC[C@@]34CCCN3C[C@@]3(CC3(F)F)C4)nc2c1F [Example 25, 2-(4-((1R,5S)-3,8-diazabicyclo[3.2.1]octan-3-yl)-2-(((1S,7a'S)-2,2-difluorodihydro-1′H,3′H-spiro[cyclopropan-1,2′-pyrrolizin]-7a′(5′H)-yl)methoxy)-8-fluoropyridino[4,3-d]pyrimidin-7-yl)-4,6-dichloro-3-fluoroaniline] | > 100 | > 1000 |  |  |
| C#Cc1c(F)ccc2cc(O)cc(-c3ncc4c(N5CCC6CCC(C5)N6)nc(OC[C@@]56CCCN5C[C@@]5(CC5(F)F)C6)nc4c3F)c12 (stereo partly drawn) [Example 28, 4-(4-(3,9-diazabicyclo[4.2.1]nonan-3-yl)-2-(((1S,7a'S)-2,2-difluorodihydro-1′H,3′H-spiro[cyclopropan-1,2′-pyrrolizin]-7a′(5′H)-yl)methoxy)-8-fluoropyridino[4,3-d]pyrimidin-7-yl)-5-ethynyl-6-fluoronaphthalen-2-ol] | 19.8 | 188 |  |  |
| C#Cc1c(F)ccc2cc(O)cc(-c3ncc4c(N5CCCC(C)(N)C5)nc(OC[C@@]56CCCN5C[C@@]5(CC5(F)F)C6)nc4c3F)c12 (stereo partly drawn) [Example 29, 4-(4-(3-amino-3-methylpiperidin-1-yl)-2-(((1S,7a'S)-2,2-difluorodihydro-1′H,3′H-spiro[cyclopropan-1,2′-pyrrolizin]-7a′(5′H)-yl)methoxy)-8-fluoropyridino[4,3-d]pyrimidin-7-yl)-5-ethynyl-6-fluoronaphthalen-2-ol] | 17.7 | 180 |  |  |
| COc1c(-c2c(F)c(N)cc(C)c2C(F)(F)F)ncc2c(N3C[C@H]4CC[C@@H](C3)N4)nc(OC[C@@]34CCCN3C[C@@]3(CC3(F)F)C4)nc12 [Example 30, 3-(4-((1R,5S)-3,8-diazabicyclo[3.2.1]octan-3-yl)-2-(((1S,7a'S)-2,2-difluorodihydro-1′H,3′H-spiro[cyclopropan-1,2′-pyrrolizin]-7a′(5′H)-yl)methoxy)-8-methoxypyridino[4,3-d]pyrimidin-7-yl)-2-fluoro-5-methyl-4-(trifluoromethyl)aniline] | > 100 | > 1000 |  |  |
| COc1c(-c2cc(N)cc(Cl)c2C(F)(F)F)ncc2c(N3C[C@H]4CC[C@@H](C3)N4)nc(OC[C@@]34CCCN3C[C@@]3(CC3(F)F)C4)nc12 [Example 31, 3-(4-((1R,5S)-3,8-diazabicyclo[3.2.1]octan-3-yl)-2-(((1S,7a'S)-2,2-difluorodihydro-1′H,3′H-spiro[cyclopropan-1,2′-pyrrolizin]-7a′(5′H)-yl)methoxy)-8-methoxypyridino[4,3-d]pyrimidin-7-yl)-5-chloro-4-(trifluoromethyl)aniline] | 24.3 | 259 |  |  |
| N#Cc1c(N)sc2cc(F)cc(-c3ncc4c(N5C[C@H]6CC[C@@H](C5)N6)nc(OC[C@@]56CCCN5C[C@@]5(CC5(F)F)C6)nc4c3F)c12 [Example 32, 4-(4-((1R,5S)-3,8-diazabicyclo[3.2.1]octan-3-yl)-2-(((1S,7a'S)-2,2-difluorodihydro-1′H,3′H-spiro[cyclopropan-1,2′-pyrrolizin]-7a′(5′H)-yl)methoxy)-8-fluoropyridino[4,3-d]pyrimidin-7-yl)-2-amino-6-fluorobenzo[b]thiophen-3-carbonitrile] | 21 | 483 |  |  |
| Fc1c(-c2c(C(F)(F)F)ccc3[nH]ncc23)ncc2c(N3CC4CCC(C3)N4)nc(OC[C@@]34CCCN3C[C@@]3(CC3(F)F)C4)nc12 [Example 33, (1S,7a'S)-7a′-(((4-((1R,5S)-3,8-diazabicyclo[3.2.1]octan-3-yl)-8-fluoro-7-(5-(trifluoromethyl)-1H-indazol-4-yl)pyridino[4,3-d]pyrimidin-2-yl)oxy)methyl)-2,2-bifluorotetrahydro-1′H,3′H-spiro[cyclopropan-1,2′-pyrrolizin]] | > 100 | > 1000 |  |  |
| CC(=O)Nc1cc(Cl)c(C(F)(F)F)c(-c2ncc3c(N4C[C@H]5CC[C@@H](C4)N5)nc(OC[C@@]45CCCN4C[C@@]4(CC4(F)F)C5)nc3c2F)c1 [Example 38, N-(3-(4-((1R,5S)-3,8-diazabicyclo[3.2.1]octan-3-yl)-2-(((1S,7a'S)-2,2-difluorodihydro-1′H,3′H-spiro[cyclopropan-1,2′-pyrrolizin]-7a′(5′H)-yl)methoxy)-8-fluoropyridino[4,3-d]pyrimidin-7-yl)-5-chloro-4-(trifluoromethyl)phenyl)acetamide] | 14.1 | 142 |  |  |
| CS(=O)(=O)Nc1cc(Cl)c(C(F)(F)F)c(-c2ncc3c(N4C[C@H]5CC[C@@H](C4)N5)nc(OC[C@@]45CCCN4C[C@@]4(CC4(F)F)C5)nc3c2F)c1 [Example 39, N-(3-(4-((1R,5S)-3,8-diazabicyclo[3.2.1]octan-3-yl)-2-(((1S,7a'S)-2,2-difluorodihydro-1′H,3′H-spiro[cyclopropan-1,2′-pyrrolizin]-7a′(5′H)-yl)methoxy)-8-fluoropyridino[4,3-d]pyrimidin-7-yl)-5-chloro-4-(trifluoromethyl)phenyl)methanesulfonamide] | 38.3 | 521 |  |  |
| Oc1cc(Cl)c(C(F)(F)F)c(-c2ncc3c(N4CC5CCC(C4)N5)nc(OC[C@@]45CCCN4C[C@@]4(CC4(F)F)C5)nc3c2F)c1 [Example 40] | 14 | 51.6 |  |  |
| N#Cc1cc(N)cc(-c2ncc3c(N4C[C@H]5CC[C@@H](C4)N5)nc(OC[C@@]45CCCN4C[C@@]4(CC4(F)F)C5)nc3c2F)c1C(F)(F)F [Example 43, 3-(4-((1R,5S)-3,8-diazabicyclo[3.2.1]octan-3-yl)-2-(((1S,7a'S)-2,2-difluorodihydro-1′H,3′H-spiro[cyclopropan-1,2′-pyrrolizin]-7a′(5′H)-yl)methoxy)-8-fluoropyridino[4,3-d]pyrimidin-7-yl)-5-amino-2-(trifluoromethyl)benzonitrile] | 4.17 | 115 |  |  |
